In patent US20050043333A1, “Quinazolinone derivative” (Fujisawa Pharmaceutical Co., Ltd, priority 2001, published 2005):

Biological target: recombinant human PARP (Homo sapiens, UniProt P09874)
Experiment: PARP Inhibitory Activity (In Vitro Assay)
Type: biochemical
Conditions: 32P-NAD, 0.05 mM NAD, activated DNA, 15 minutes at room temperature
Procedure: Incubation was for 15 minutes at a room temperature and the reaction was stopped by the addition of 200 μl of ice-cold 20% trichloroacetic acid followed by rapid filtration through GF/B filters. The filters were treated with scintillation fluid and acid-insoluble counts were measured for quantification of unit activity.

recombinant human PARP, sequence (P09874 whole entry): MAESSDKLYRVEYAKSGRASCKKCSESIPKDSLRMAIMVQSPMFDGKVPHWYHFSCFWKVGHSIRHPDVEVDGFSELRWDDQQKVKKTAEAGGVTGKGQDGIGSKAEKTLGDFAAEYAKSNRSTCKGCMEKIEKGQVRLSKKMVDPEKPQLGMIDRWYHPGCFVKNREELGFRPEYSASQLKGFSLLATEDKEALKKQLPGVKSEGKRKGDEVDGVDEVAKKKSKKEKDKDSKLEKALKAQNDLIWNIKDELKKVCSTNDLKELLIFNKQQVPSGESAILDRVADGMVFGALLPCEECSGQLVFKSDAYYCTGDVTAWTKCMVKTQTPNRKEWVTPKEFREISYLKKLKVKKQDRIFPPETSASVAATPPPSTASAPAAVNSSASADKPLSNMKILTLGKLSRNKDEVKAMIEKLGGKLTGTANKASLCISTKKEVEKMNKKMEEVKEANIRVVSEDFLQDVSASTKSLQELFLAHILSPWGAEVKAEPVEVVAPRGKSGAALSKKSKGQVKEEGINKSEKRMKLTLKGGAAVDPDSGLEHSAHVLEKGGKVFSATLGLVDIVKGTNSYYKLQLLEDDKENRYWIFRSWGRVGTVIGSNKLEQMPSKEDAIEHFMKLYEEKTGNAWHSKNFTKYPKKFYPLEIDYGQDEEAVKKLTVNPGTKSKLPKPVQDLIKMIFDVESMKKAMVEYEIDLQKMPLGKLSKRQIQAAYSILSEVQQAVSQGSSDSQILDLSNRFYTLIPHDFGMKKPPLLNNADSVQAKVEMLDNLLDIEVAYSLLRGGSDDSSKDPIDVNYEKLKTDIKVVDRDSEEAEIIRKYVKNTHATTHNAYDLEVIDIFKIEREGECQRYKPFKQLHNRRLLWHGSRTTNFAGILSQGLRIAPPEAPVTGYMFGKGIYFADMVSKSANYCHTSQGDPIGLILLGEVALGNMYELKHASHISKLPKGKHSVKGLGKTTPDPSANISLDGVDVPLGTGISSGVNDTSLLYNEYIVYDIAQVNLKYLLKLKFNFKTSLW

O=c1[nH]c(C2=CC(N3CC=C(c4ccccc4)CC3)CC2)nc2ccccc12 (stereo not shown) [Compound A, 2-[3-(4-phenyl-3,6-dihydro-1(2H)-pyridinyl)-1-cyclopenten-1-y 1]-4(3H)-quinazolinone] gave an IC50 of under 0.5 µM.
